Results as given in patent publication US20030162687A1, “Surfactants” (AJINOMOTO CO. INC., priority 2002, published 2003).

Columns and labels:
[1] = Particle diameter distribution by sieve classification; format: physicochemical
Method: Content of the 280 mesh pass particles can generally be measured according to JIS Z8815 “General procedures for sieve analysis test”. For example, the content can be determined by sieving particles through a sieve having a mesh size of 280 (53 μm) with vibration using a vibrator, and measuring weight of particles passed through the sieve. The measurement can be carried out, for example, after vibration for 5 minutes with an amplitude of 2.0 mm, and a sieve according to the JIS standard (JIS Z 8801-1) can be used as the sieve. A specific example of the sieving method is given in the examples of the specification, and accordingly, those skilled in the art can measure a content of 280 mesh pass particles by referring to the aforementioned JIS general procedures and descriptions of the examples of the specification.
In the following example, sieve classification was carried out by vibrating a sieve for 5 minutes at an amplitude of 2.0 mm using a vibrator produced by Rctsch. Powdery samples were prepared in a conventional manner by using a spray dryer with sodium N-lauroyl-L-glutamate, sodium N-myristoyl-L-glutamate, sodium N-palmoyl-L-glutamate, and sodium N-cocoyl glycinate as salts of N-long-chain acyl amino acids. Drying was performed under the following conditions.
From the samples dried by the spray drier, 280 mesh pass cut samples, 200 mesh pass cut samples, and 140 mesh pass cut samples were prepared by using sieves. […] Samples that were not subjected to sieve classification were used as controls.

[2] = Flowability by powder tester Model PT-N, Carr's flowability index method; format: physicochemical
Method: As for evaluation of flowability, parameters of angle of repose, degree of compaction, spatula angle, and degree of aggregation were measured by using a powder tester Model PT-N produced by HOSOKAWA MICRON CORP. based on the method for evaluating Carr's flowability index.

[3] = 140 mesh pass cut sample (106 μm)
[4] = 200 mesh pass cut sample (75 μm)
[5] = 280 mesh pass cut sample (53 μm)
[6] = control, not subjected to sieve classification

## CCCCCCCCCCCC(=O)N[C@@H](CCC(=O)[O-])C(=O)[O-].[Na+].[Na+] [Na lauroylglutamate, sodium N-lauroyl-L-glutamate]
[1]; [3]
  Particle diameter distribution 53˜75 μm: 0%
  Particle diameter distribution 75˜106 μm: 0%
  Particle diameter distribution 106˜μm: 100%
  Particle diameter distribution ˜53 μm: 0%
[1]; [4]
  Particle diameter distribution 53˜75 μm: 0%
  Particle diameter distribution 75˜106 μm: 9.6%
  Particle diameter distribution 106˜μm: 90.4%
  Particle diameter distribution ˜53 μm: 0%
[1]; [5]
  Particle diameter distribution 53˜75 μm: 8.3%
  Particle diameter distribution 75˜106 μm: 8.8%
  Particle diameter distribution 106˜μm: 82.9%
  Particle diameter distribution ˜53 μm: 0%
[1]; [6]
  Particle diameter distribution 53˜75 μm: 7.9%
  Particle diameter distribution 75˜106 μm: 8.4%
  Particle diameter distribution 106˜μm: 79.0%
  Particle diameter distribution ˜53 μm: 4.7%
[2]; [3]
  Flowability index: 76.0
  Flowability: Angle of repose: 29.1 °
  Flowability: Degree of aggregation: 34.6%
  Flowability: Degree of compaction: 13.7%
  Flowability: Spatula angle: 29.5 °
[2]; [4]
  Flowability index: 77.0
  Flowability: Angle of repose: 30.6 °
  Flowability: Degree of aggregation: 15.7%
  Flowability: Degree of compaction: 12.7%
  Flowability: Spatula angle: 31.7 °
[2]; [5]
  Flowability index: 78.0
  Flowability: Angle of repose: 28.6 °
  Flowability: Degree of aggregation: 12.5%
  Flowability: Degree of compaction: 14.0%
  Flowability: Spatula angle: 36.7 °
[2]; [6]
  Flowability index: 67.0
  Flowability: Angle of repose: 33.0 °
  Flowability: Degree of aggregation: 15.1%
  Flowability: Degree of compaction: 18.3%
  Flowability: Spatula angle: 46.7 °

## CCCCCCCCCCCCCC(=O)N[C@@H](CCC(=O)[O-])C(=O)[O-].[Na+].[Na+] [Na myristoylglutamate, sodium N-myristoyl-L-glutamate]
[1]; [3]
  Particle diameter distribution 53˜75 μm: 0%
  Particle diameter distribution 75˜106 μm: 0%
  Particle diameter distribution 106˜μm: 100%
  Particle diameter distribution ˜53 μm: 0%
[1]; [4]
  Particle diameter distribution 53˜75 μm: 0%
  Particle diameter distribution 75˜106 μm: 15.1%
  Particle diameter distribution 106˜μm: 84.9%
  Particle diameter distribution ˜53 μm: 0%
[1]; [5]
  Particle diameter distribution 53˜75 μm: 6.5%
  Particle diameter distribution 75˜106 μm: 14.1%
  Particle diameter distribution 106˜μm: 79.4%
  Particle diameter distribution ˜53 μm: 0%
[1]; [6]
  Particle diameter distribution 53˜75 μm: 6.0%
  Particle diameter distribution 75˜106 μm: 13.0%
  Particle diameter distribution 106˜μm: 73.3%
  Particle diameter distribution ˜53 μm: 7.7%
[2]; [3]
  Flowability: Angle of repose: 30.8 °
  Flowability: Degree of aggregation: 13.5%
  Flowability: Degree of compaction: 11.3%
  Flowability: Spatula angle: 34.8 °
[2]; [4]
  Flowability: Angle of repose: 30.1 °
  Flowability: Degree of aggregation: 19.9%
  Flowability: Degree of compaction: 11.1%
  Flowability: Spatula angle: 37.0 °
[2]; [5]
  Flowability: Angle of repose: 31.1 °
  Flowability: Degree of aggregation: 15.9%
  Flowability: Degree of compaction: 12.8%
  Flowability: Spatula angle: 38.8 °
[2]; [6]
  Flowability: Angle of repose: 26.6 °
  Flowability: Degree of aggregation: 12.3%
  Flowability: Degree of compaction: 16.5%
  Flowability: Spatula angle: 49.3 °

## CCCCCCCCCCCCCCCC(=O)N[C@@H](CCC(=O)[O-])C(=O)[O-].[Na+].[Na+] [Na palmoylglutamate, sodium N-palmoyl-L-glutamate]
[1]; [3]
  Particle diameter distribution 53˜75 μm: 0%
  Particle diameter distribution 75˜106 μm: 0%
  Particle diameter distribution 106˜μm: 100%
  Particle diameter distribution ˜53 μm: 0%
[1]; [4]
  Particle diameter distribution 53˜75 μm: 0%
  Particle diameter distribution 75˜106 μm: 14.4%
  Particle diameter distribution 106˜μm: 81.3%
  Particle diameter distribution ˜53 μm: 0%
[1]; [5]
  Particle diameter distribution 53˜75 μm: 4.8%
  Particle diameter distribution 75˜106 μm: 17.8%
  Particle diameter distribution 106˜μm: 77.4%
  Particle diameter distribution ˜53 μm: 0%
[1]; [6]
  Particle diameter distribution 53˜75 μm: 4.5%
  Particle diameter distribution 75˜106 μm: 16.9%
  Particle diameter distribution 106˜μm: 73.3%
  Particle diameter distribution ˜53 μm: 5.3%
[2]; [3]
  Flowability: Angle of repose: 32.0 °
  Flowability: Degree of aggregation: 26.4%
  Flowability: Degree of compaction: 10.2%
  Flowability: Spatula angle: 49.2 °
[2]; [4]
  Flowability: Angle of repose: 37.4 °
  Flowability: Degree of aggregation: 20.6%
  Flowability: Degree of compaction: 12.4%
  Flowability: Spatula angle: 53.4 °
[2]; [5]
  Flowability: Angle of repose: 35.5 °
  Flowability: Degree of aggregation: 21.5%
  Flowability: Degree of compaction: 12.4%
  Flowability: Spatula angle: 52.4 °
[2]; [6]
  Flowability: Angle of repose: 39.3 °
  Flowability: Degree of aggregation: 17.6%
  Flowability: Degree of compaction: 15.6%
  Flowability: Spatula angle: 59.0 °

## sodium N-cocoyl glycinate [Na cocoylglycinate]
[1]; [3]
  Particle diameter distribution 53˜75 μm: 0%
  Particle diameter distribution 75˜106 μm: 0%
  Particle diameter distribution 106˜μm: 100%
  Particle diameter distribution ˜53 μm: 0%
[1]; [4]
  Particle diameter distribution 53˜75 μm: 0%
  Particle diameter distribution 75˜106 μm: 9.2%
  Particle diameter distribution 106˜μm: 90.8%
  Particle diameter distribution ˜53 μm: 0%
[1]; [5]
  Particle diameter distribution 53˜75 μm: 6.5%
  Particle diameter distribution 75˜106 μm: 15.3%
  Particle diameter distribution 106˜μm: 78.2%
  Particle diameter distribution ˜53 μm: 0%
[1]; [6]
  Particle diameter distribution 53˜75 μm: 4.4%
  Particle diameter distribution 75˜106 μm: 17.1%
  Particle diameter distribution 106˜μm: 73.0%
  Particle diameter distribution ˜53 μm: 5.5%
[2]; [3]
  Flowability: Angle of repose: 28.6 °
  Flowability: Degree of aggregation: 27.9%
  Flowability: Degree of compaction: 15.6%
  Flowability: Spatula angle: 43.4 °
[2]; [4]
  Flowability: Angle of repose: 31.0 °
  Flowability: Degree of aggregation: 28.1%
  Flowability: Degree of compaction: 15.1%
  Flowability: Spatula angle: 50.0 °
[2]; [5]
  Flowability: Angle of repose: 33.0 °
  Flowability: Degree of aggregation: 28.4%
  Flowability: Degree of compaction: 14.5%
  Flowability: Spatula angle: 56.0 °
[2]; [6]
  Flowability: Angle of repose: 36.7 °
  Flowability: Degree of aggregation: 32.8%
  Flowability: Degree of compaction: 16.4%
  Flowability: Spatula angle: 62.0 °
